Structures are written as SMILES.

Chain of histone deacetylase, subtype 1 (HDAC1) (Q13547 whole entry): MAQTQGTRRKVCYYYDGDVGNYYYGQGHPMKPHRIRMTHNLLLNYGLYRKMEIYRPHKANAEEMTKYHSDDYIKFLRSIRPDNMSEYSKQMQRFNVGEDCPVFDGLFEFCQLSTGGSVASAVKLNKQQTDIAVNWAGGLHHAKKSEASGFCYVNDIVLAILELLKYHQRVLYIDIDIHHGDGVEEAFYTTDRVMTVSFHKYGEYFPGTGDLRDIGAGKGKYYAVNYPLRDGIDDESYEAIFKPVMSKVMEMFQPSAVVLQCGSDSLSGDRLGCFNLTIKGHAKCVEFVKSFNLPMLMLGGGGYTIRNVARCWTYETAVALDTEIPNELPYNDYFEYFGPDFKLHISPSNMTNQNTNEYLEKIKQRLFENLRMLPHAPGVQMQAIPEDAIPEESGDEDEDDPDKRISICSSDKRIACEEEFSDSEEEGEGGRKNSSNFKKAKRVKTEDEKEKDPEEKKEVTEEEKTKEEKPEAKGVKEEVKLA

The target of the test is histone deacetylase, subtype 1 (HDAC1) (Homo sapiens (Human), UniProt Q13547). Description: HDAC1-Flag in vitro deacetylation assay. Format: biochemical. Particulars: IP = inflection point; read-out: HDAC1 IP (inflection point). The protocol:
Novel compounds were tested for their ability to inhibit histone deacetylase, subtype 1 (HDAC1) using an in vitro deacetylation assay. The enzyme source for this assay was an epitope-tagged human HDAC1 complex immuno-purified from stably expressing mammalian cells. The substrate consisted of a commercial product containing an acetylated lysine side chain (BIOMOL Research Laboratories, Inc., Plymouth Meeting, Pa.). Upon deacetylation of the substrate by incubation with the purified HDAC1 complex, a fluorophore is produced that is directly proportional to the level of deacetylation.
Turning to `CN1CCC(CN(C)Cc2ccc(C(=O)Nc3cc(-c4ccccc4)ccc3O)cc2)CC1` [Example 115, N-(4-hydroxy-3-biphenylyl)-4-({methyl[(1-methyl-4-piperidinyl)methyl]amino}methyl)benzamide], the IC50 stood at 0.078 µM.

For the molecule `O=C(Nc1cc(-c2ccccc2)ccc1O)c1ccc(CN2CCCC2c2ccccn2)cc1` (stereo not drawn) [Example 116, N-(4-hydroxy-3-biphenylyl)-4-{[2-(2-pyridinyl)-1-pyrrolidinyl]methyl}benzamide], the IC50 turned out to be 0.28 µM.

As to `O=C(Nc1cc(-c2ccccc2)ccc1O)c1ccc(CNCCOc2ccccc2)cc1` [Example 96, N-(4-hydroxy-3-biphenylyl)-4-{[(2-phenoxyethyl)amino]methyl}benzamide], the IC50 came out at 0.36 µM.

On to `O=C(Nc1cc(-c2ccccc2)ccc1O)c1ccc(CNCc2cccs2)cc1` [Example 98, N-(4-hydroxy-3-biphenylyl)-4-{[(2-thienylmethyl)amino]methyl}benzamide], for which the IC50 is 2.1 µM.

`CN(Cc1ccccc1)Cc1ccc(C(=O)Nc2cc(-c3ccccc3)ccc2O)cc1` [Example 88, 4-{[benzyl(methyl)amino]methyl}-N-(4-hydroxy-3-biphenylyl)benzamide]: the IC50 amounted to 0.35 µM.

In the case of `CC(C)NCCNCc1ccc(C(=O)Nc2cc(-c3ccccc3)ccc2O)cc1` [Example 91, N-(4-hydroxy-3-biphenylyl)-4-({[2-(isopropylamino)ethyl]amino}methyl)benzamide], the IC50 was determined as 0.044 µM.

As for `CN(CCc1ccncc1)Cc1ccc(C(=O)Nc2cc(-c3ccccc3)ccc2O)cc1` [Example 104, N-(4-hydroxy-3-biphenylyl)-4-({methyl[2-(4-pyridinyl)ethyl]amino}methyl)benzamide], the IC50 came to 0.033 µM.

Take `O=C(Nc1cc(-c2ccccc2)ccc1O)c1ccc(CN2Cc3ccccc3C2)cc1` [Example 95, 4-(1,3-dihydro-2H-isoindol-2-ylmethyl)-N-(4-hydroxy-3-biphenylyl)benzamide]: the IC50 was found to be 27 µM.

With `O=C(Nc1cc(-c2ccccc2)ccc1O)c1ccc(CNCCn2cccn2)cc1` [Example 111, N-(4-hydroxy-3-biphenylyl)-4-({[2-(1H-pyrazol-1-yl)ethyl]amino}methyl)benzamide], the IC50 stood at 0.033 µM.

For `CN1CCN(Cc2ccc(C(=O)Nc3cc(-c4ccccc4)ccc3O)cc2)CC1` [Example 100, N-(4-hydroxy-3-biphenylyl)-4-[(4-methyl-1-piperazinyl)methyl]benzamide], the IC50 was 2.4 µM.

For the molecule `CN(C)C1CCN(Cc2ccc(C(=O)Nc3cc(-c4ccccc4)ccc3O)cc2)C1` (stereo not drawn) [Example 106, 4-{[3-(dimethylamino)-1-pyrrolidinyl]methyl}-N-(4-hydroxy-3-biphenylyl)benzamide], the IC50 came out at 0.05 µM.

Regarding `CNCCN(C)Cc1ccc(C(=O)Nc2cc(-c3ccccc3)ccc2O)cc1` [Example 101, N-(4-hydroxy-3-biphenylyl)-4-({methyl[2-(methylamino)ethyl]amino}methyl)benzamide], the IC50 was 0.035 µM.

With `CC(C)(C)OC(=O)NCc1ccc(C(=O)Nc2cc(-c3ccccc3)ccc2O)cc1` [Example 7, 1,1-dimethylethyl[(4-{[(4-hydroxybiphenyl-3-yl)amino]carbonyl}phenyl)methyl]carbamate], the IC50 is 0.07 µM.

`O=C(Nc1cc(-c2ccccc2)ccc1O)c1ccc(CNC2Cc3ccccc3C2)cc1` [Example 108, 4-[(2,3-dihydro-1H-inden-2-ylamino)methyl]-N-(4-hydroxy-3-biphenylyl)benzamide]: the IC50 came out at 0.16 µM.

Turning to `CNCCCN(C)Cc1ccc(C(=O)Nc2cc(-c3ccccc3)ccc2O)cc1` [Example 99, N-(4-hydroxy-3-biphenylyl)-4-({methyl[3-(methylamino)propyl]amino}methyl)benzamide], the IC50 turned out to be 0.018 µM.

`O=C(NCc1ccc(C(=O)Nc2cc(-c3ccccc3)ccc2O)cc1)OCc1cccnc1` [Example 5, pyridin-3-ylmethyl[(4-{[(4-hydroxybiphenyl-3-yl)amino]carbonyl}phenyl)methyl]carbamate]: the IC50 stood at 0.02 µM.

As to `CC(C)OCCCNCc1ccc(C(=O)Nc2cc(-c3ccccc3)ccc2O)cc1` [Example 86, N-(4-hydroxy-3-biphenylyl)-4-{[(3-isopropoxypropyl)amino]methyl}benzamide], the IC50 came out at 0.095 µM.

With `NCCNCc1ccc(C(=O)Nc2cc(-c3ccccc3)ccc2O)cc1` [Example 107, 4-{[(2-aminoethyl)amino]methyl}-N-(4-hydroxy-3-biphenylyl)benzamide], the IC50 was 0.072 µM.

On to `Cc1nc(-c2ccccc2)sc1CNCc1ccc(C(=O)Nc2cc(-c3ccccc3)ccc2O)cc1` [Example 74, N-(4-hydroxy-3-biphenylyl)-4-({[(4-methyl-2-phenyl-1,3-thiazol-5-yl)methyl]amino}methyl)benzamide], for which the IC50 amounted to 0.69 µM.

In the case of `O=C(Nc1cc(-c2ccccc2)ccc1O)c1ccc(CNC2CC2)cc1` [Example 75, 4-[(cyclopropylamino)methyl]-N-(4-hydroxy-3-biphenylyl)benzamide], the IC50 was determined as 0.076 µM.

Turning to `CN(Cc1ccc(C(=O)Nc2cc(-c3ccccc3)ccc2O)cc1)Cc1cnccn1` [Example 113, N-(4-hydroxy-3-biphenylyl)-4-{[methyl(2-pyrazinylmethyl)amino]methyl}benzamide], the IC50 stood at 0.031 µM.

For `O=C(Nc1cc(-c2ccccc2)ccc1O)c1ccc(CNCCc2ccccc2)cc1` [Example 71, N-(4-hydroxy-3-biphenylyl)-4-{[(2-phenylethyl)amino]methyl}benzamide], the IC50 is 0.97 µM.

As for `CCN1CCC(CNCc2ccc(C(=O)Nc3cc(-c4ccccc4)ccc3O)cc2)CC1` [Example 102, 4-({[(1-ethyl-4-piperidinyl)methyl]amino}methyl)-N-(4-hydroxy-3-biphenylyl)benzamide], the IC50 came to 0.065 µM.

Take `O=C(Nc1cc(-c2ccccc2)ccc1O)c1ccc(CN2CCNCC2)cc1` [Example 83, N-(4-hydroxy-3-biphenylyl)-4-(1-piperazinylmethyl)benzamide]: the IC50 worked out at 0.065 µM.

`CC(C)CCNCc1ccc(C(=O)Nc2cc(-c3ccccc3)ccc2O)cc1` [Example 92, N-(4-hydroxy-3-biphenylyl)-4-{[(3-methylbutyl)amino]methyl}benzamide]: the IC50 worked out at 0.1 µM.

Regarding `Nc1ccc(-c2cccnc2)cc1NC(=O)c1ccc(CNC(=O)OCc2cccnc2)cc1` [Example 3, pyridin-3-ylmethyl[(4-{[(2-amino-5-pyridin-3-ylphenyl)amino]carbonyl}phenyl)methyl]carbamate], the IC50 is 0.017 µM.

As for `O=C(Nc1cc(-c2ccccc2)ccc1O)c1ccc(CNCC2CC2)cc1` [Example 78, 4-{[(cyclopropylmethyl)amino]methyl}-N-(4-hydroxy-3-biphenylyl)benzamide], the IC50 was determined as 0.072 µM.

Consider `O=C(Nc1cc(-c2ccccc2)ccc1O)c1ccc(CNCc2cccnc2)cc1` [Example 81, N-(4-hydroxy-3-biphenylyl)-4-{[(3-pyridinylmethyl)amino]methyl}benzamide], for which the IC50 came out at 0.032 µM.

As for `O=C(Nc1cc(-c2ccccc2)ccc1O)c1ccc(CNCCCc2ccccc2)cc1` [Example 89, N-(4-hydroxy-3-biphenylyl)-4-{[(3-phenylpropyl)amino]methyl}benzamide], the IC50 was 0.45 µM.

With `CCN(C)Cc1ccc(C(=O)Nc2cc(-c3ccccc3)ccc2O)cc1` [Example 94, 4-{[ethyl(methyl)amino]methyl}-N-(4-hydroxy-3-biphenylyl)benzamide], the IC50 was 0.031 µM.

These data come from patent US9096559B2, “4-carboxybenzylamino derivatives as histone deacetylase inhibitors” (Merck Sharp & Dohme Corp., priority 2007, dated 2015).
